Columns and labels:
PMIX = tested on: PMIX; parameters: method as in PMID 29074775, PMID 32109369, PMID 23260352, PMID 29519896; conditions: Figure 1, described in literature; cited from earlier work
[1] = tested on: SERA5 processing by SUB1, indicative of upstream activity by PMX; test: SERA5 processing inhibition assay in parasites (western blot, anti-SERA5); type: cell-based, P. falciparum; conditions: WM382 (1) at 2.5 nM
Excerpt: PMX and PMIX ligand cleavage in P. falciparum parasites. It was next determined whether 38 could inhibit PMX and PMIX processing of known invasion and egress ligands in P. falciparum parasites. […] SERA5 is not a direct substrate of PMX, but is processed by SUB1 which itself is activated by PMX. The degree of downstream processing of SERA5 by SUB1 is indicative of PMX activity.
(§1) In this experiment, synchronized late trophozoite/early schizont stage parasites, expressing HA‐tagged ASP, were incubated with 38 (10 μM), the positive control WM382 (1) (2.5 nM) (a dual potent inhibitor of PMIX and PMX) and the DMSO vehicle control. Parasites from each treatment condition were then lysed and the processing of the known PMX and PMIX substrates were detected by western blot as a corollary of protease activity.
P. falciparum ASP and SERA5 Processing Inhibition Assay. P. falciparum substrate processing inhibition assays were performed as previously described.[28] Synchronized ring stage cultures were treated with test compounds 38 (10 μM) and WM382 (2.5 nM)[28] or DMSO as a vehicle control. […] HA‐tagged apical sushi protein (ASP) was detected in the merozoite fraction with anti‐HA mAb and SERA5 was detected in the supernatant fraction with an anti‐SERA5 polyclonal Ab. […]

[2] = tested on: PMIX processing of the ASP protein; test: ASP processing inhibition assay in parasites (western blot, anti-HA); type: cell-based, P. falciparum; conditions: WM382 (1) at 2.5 nM, HA‐tagged ASP parasites
Procedure: as §1
P. falciparum ASP and SERA5 Processing Inhibition Assay. P. falciparum substrate processing inhibition assays were performed as previously described.[28] Synchronized ring stage cultures were treated with test compounds 38 (10 μM) and WM382 (2.5 nM)[28] or DMSO as a vehicle control. The parasite cultures were grown to the schizont stage before passing over LD magnetic columns (Miltenyi Biotech) to remove uninfected erythrocytes. Parasites were eluted from columns with RPMI 1640 (in‐house) culture medium to which the appropriate inhibitor at the same concentration had been added. Eluted parasites were adjusted to 5×10^6 schizonts/mL and 150 μL added per well of a 96‐well flat‐bottomed culture plate. […] HA‐tagged apical sushi protein (ASP) was detected in the merozoite fraction with anti‐HA mAb and SERA5 was detected in the supernatant fraction with an anti‐SERA5 polyclonal Ab. […]

PMX = conditions: Figure 1, described in literature; cited from earlier work
Pf 3D7 = tested on: Pf 3D7; parameters: method as in PMID 29074775, PMID 32109369, PMID 23260352, PMID 29519896; conditions: Figure 1, described in literature; cited from earlier work

In the case of `CCC1(CC)CC(=O)N([C@@H]2CCOc3ccc(C(=O)N[C@H]4CC(C)(C)Oc5ccccc54)cc32)C(=N)N1` [WM382], the IC50 (PMIX) is listed as 0.4 nM, the “SERA5 processing (western blot)” value [1] is listed as “complete inhibition of SERA5 processing” and the “ASP processing by PMIX (western blot)” value [2] is listed as “inhibition of ASP processing”. For the same molecule, the IC50 (PMX) was 0.04 nM and the EC50 (Pf 3D7) was 0.6 nM.
